# From patent US20260265267A1, “NOVEL COMPOUNDS WITH MTORC2-INHIBITORY ACTIVITY AND USES THEREOF” (Aliad Biopharma, priority 2023, published 2026)
# Legend:
# LC3-II [1] = assay: LC3-II formation as indicator of autophagy in HeLa cells (Western blot); assay type: cell-based, human; conditions: 9 hours; for activity at 40 µM: Homo sapiens, read-out: LC3-II (% control)
# Procedure: (§1) Specifically, HeLa cells were cultured in a 5% CO2 incubator at 37° C. in DMEM (Dulbecco's Modified Eagles Media) medium supplemented with 10% FBS, penicillin (100 unit/ml), and streptomycin (100 μg/ml). Cultivation was started by seeding 4×10^5 cells in a 100 mm culture dish, and subculture was carried out every 3 days.
# (§2) Human cell line HeLa cells were seeded in a 60 mm culture dish at a density of 2×10^5 cells/plate, and cultured for 24 hours. Then, HeLa cells were treated with 70 types of compounds at a concentration of 40 μM each for 9 hours. HeLa cells were washed twice with cold 1×PBS, and then lysed with 100 μl of RIPA buffer (50 mM Tris-HCl (pH7.4), 0.25% sodium deoxycholate, 50 mM NaF, 1% NP-40, 150 mM NaCl, 1 mM β-glycerophosphate, 1 mM PMSF, 1 mM NaVO4, 1 μg/ml leupeptin, 1 μg/ml pepstatin A, 10 nM calyculin A, 10 μg/ml aprotinin, 1 mM EDTA) to hemolyze the cell membrane. Then, the lysates were centrifuged at 12,000 rpm at 4° C. for 10 minutes to collect the supernatant, which is cell lysate. Protein concentration in the cell lysate was determined using the BCA protein assay kit (Thermo Fisher Scientific), and equal amounts of protein were separated by SDS-PAGE.
# (§3) Western blot analysis was performed by the following method. […] After washing the membrane three times for 5 minutes each with TBS-T buffer, it was incubated with primary antibodies diluted in TBS-T buffer containing 5% skim milk or 5% BSA overnight at 4° C. Subsequently, the membrane was washed three times for 5 minutes each with TBS-T buffer, and then incubated with secondary antibodies diluted in TBS-T buffer containing 5% skim milk at room temperature for 30 minutes. The membrane was washed five times for 5 minutes each with TBS-T buffer containing 5% skim milk, and then the protein bands bound by the secondary antibody were detected using a chemiluminescence method. The primary antibodies used were Akt (cell signaling, #4691), pAkt(S473) (Cell signaling, #4060), p70S6K (Cell signaling, #S6198), pp70S6K(T389) (cell signaling, #9205S), LC3-II (MBL, #PM036), and the secondary antibodies used were HRP conjugated anti-rabbit (Jackson immunoresearch laboratory, #711-035-152) and HRP conjugated anti-mouse IgG (Jackson immunoresearch laboratory, #515-035-072).
# LC3-II formation was selected as an indicator of autophagy in HeLa cells, and the LC3-II signal obtained from Western blot analysis was normalized to the pan-Akt signal and the data were expressed as a percentage relative to the control group treated with DMSO only, which is a vehicle.
# [2] = molecular target: T1, mTOR(CD) protein and mLST8 protein (Homo sapiens, UniProt P42345+Q9BVC4); assay: mTOR(CD)-mLST8 binding assay (co-precipitation, Western blot); conditions: 0.04 to 40 μM
# T1 construct: mTOR C-terminal domain (mTOR(CD), a.a. 2179-2549); made in house; host or cells: E. coli (mTOR(CD)); insect Sf9 cells (mLST8, used as a crude extract)
# Procedure: mLST8 binds to the mTOR C-terminal domain (mTOR(CD), a.a. 2179-2549). After binding to mTOR, mLST8 interacts with mSin1 and Rictor to complete the formation of the mTORC2 complex, serving as a scaffold. In order to evaluate the inhibitory activity of the compounds synthesized in Examples 1 to 70 on the binding between mLST8 protein and mTOR(CD) protein, the following mTOR(CD)-mLST8 binding assay was performed. Four types of compounds: HN2210, HN2213, HN2221 and HN2313 were used as the experimental target compounds.
# Specifically, mTOR(CD) protein was overexpressed in E. coli, labeled with biotin, and then partially purified. mLST8 protein was overexpressed in insect Sf9 cells to obtain mLST8 extract. mTOR(CD)-biotin and mLST8 extract were incubated at 4° C. to induce binding between mTOR(CD)-biotin and mLST8 proteins, and then the mTOR(CD)-biotin and mLST8 complex were co-precipitated using avidin-agarose beads. The relative amounts of precipitated mTOR(CD)-biotin and mLST8 proteins were measured by Western blot analysis, as shown in FIG. 4. Four types of compounds were added during the incubation process of the mTOR(CD)-biotin and mLST8 extract.
# mTORC2 [3] = molecular target: T2, mTORC2 (Homo sapiens, UniProt P42345); assay: mTORC2 inhibitory activity in HeLa cells (Akt Ser473 phosphorylation, Western blot); assay type: cell-based; conditions: for selective inhibition of mTORC2: 40 μM, versus mTORC1; for selective inhibition of mTORC2 / remaining activity at 40 µM: 9 hours; for remaining activity at 40 µM: read-out: pSer473-AKT/AKT (% control); for inhibition at 40 µM: HeLa, 9 h, read-out: reduction in Akt Ser473 phosphorylation compared to the control group
# T2 construct: the following experiments were conducted in HeLa cells; endogenous in cells; host or cells: HeLa
# Procedure: as §1, §2, §3
# As an mTORC2 activity indicator in HeLa cells, the level of Akt Ser473 phosphorylation was selected as a marker, and the phosphor-Akt (Ser473) signal obtained from Western blot analysis was normalized to the pan-Akt signal, and the data were expressed as a percentage relative to the control group treated with DMSO only, which is a vehicle.
# mTORC1 [4] = molecular target: T3, mTORC1 (Homo sapiens, UniProt P42345); assay: mTORC1 inhibitory activity in HeLa cells (p70S6K Thr389 phosphorylation, Western blot); assay type: cell-based; conditions: for remaining activity at 40 µM: read-out: pThr389-S6K/S6K (% control)
# T3 construct: the following experiments were conducted in HeLa cells; endogenous in cells; host or cells: HeLa
# Procedure: as §1, §2, §3
# As an mTORC1 activity indicator in HeLa cells, the level of p70S6K Thr389 phosphorylation was selected as a marker, and the level of phosphor-p70S6K (Thr389) signal measured by Western blot analysis was normalized to a level of pan-p70S6K signal, and then expressed as a percentage of the control group treated with only DMSO, which is a vehicle.
# LC3-II [5] = assay: LC3-II levels in primary cultured cerebral neurons; assay type: cell-based, SD mice; conditions: for effect on LC3-II: 500 nM or 100 nM, time course to 24 hours; for LC3-II (% control): 24 hours
# Procedure: Specifically, primary neural cells were cultured from the cerebral cortex of E16 embryos of SD […] with a gestational age 16-day (Orient Bio). The extracted brain was separated into the left and right hemispheres, the meninges were removed, and the brains were treated with trypsin in Ca^2+/Mg^2+-free HBSS solution. […] The cells were seeded at a density of 19,000 cells/cm^2 onto 35 mm culture dishes coated with 50 μg/ml poly-D-Lysine (Sigma, P0899) and 1 μg/ml laminin (Invitrogen, 23017-015), and then maintained in neurobasal complete media supplemented with B27 (Gibco, 17504-044) in a 5% CO2 incubator.
# Therefore, the evaluation of mTORC2 inhibitory activity in primary cultured cerebral cells was conducted using the same method as in Experimental Example 1, except that each compound was treated at concentrations of 500 nM or 100 nM for 24 hours. The time-dependent changes in Akt Ser473 phosphorylation, Akt Thr308 phosphorylation, and LC3-II levels were measured by Western blot analysis.
# mTORC2 [6] = assay: mTORC2 inhibitory activity in primary cultured cerebral neurons (Akt Ser473 phosphorylation); assay type: cell-based, SD mice; conditions: for effect on Akt Ser473 phosphorylation / decrease in AKT Ser473 phosphorylation at 24 hours: 500 nM or 100 nM; for effect on Akt Ser473 phosphorylation / pSer473-AKT/AKT (% control): 24 hours
# Procedure: Specifically, primary neural cells were cultured from the cerebral cortex of E16 embryos of SD mice with a gestational age 16-day (Orient Bio). The extracted brain was separated into the left and right hemispheres, the meninges were removed, and the brains were treated with trypsin in Ca^2+/Mg^2+-free HBSS solution.
# The time-dependent changes in Akt Ser473 phosphorylation, Akt Thr308 phosphorylation, and LC3-II levels were measured by Western blot analysis.
# mTORC1 [7] = assay: mTORC1 inhibitory activity in primary cultured cerebral neurons (S6K Thr389 phosphorylation); assay type: cell-based, SD mice; conditions: for effect on S6K Thr389 phosphorylation: 500 nM or 100 nM, time course to 24 hours (HN2304: from 6 to 24 hours); for pThr389-S6K/S6K (% control): 24 hours
selective inhibition of mTORC2 (mTORC2 [3]),remaining activity at 40 µM (mTORC2 [3]),inhibition at 40 µM (mTORC2 [3]),remaining activity at 40 µM (mTORC1 [4]; 9 hours),SMILES,activity at 40 µM (LC3-II [1]),effect on LC3-II (LC3-II [5]),selectivity for mTORC2 over mTORC1 (mTORC2 [6]),effect on Akt Ser473 phosphorylation (mTORC2 [6]),decrease in AKT Ser473 phosphorylation at 24 hours (mTORC2 [6]),AKT Ser473 phosphorylation from 1 to 12 hours (mTORC2 [6]),effect on S6K Thr389 phosphorylation (mTORC1 [7]),LC3-II (% control) (LC3-II [5]; 100 nM),pSer473-AKT/AKT (% control) (mTORC2 [6]; 100 nM),pThr389-S6K/S6K (% control) (mTORC1 [7]; 100 nM),other results
selectively inhibit mTORC2,77%,> 20%,93%,"O=C1c2cc(F)c(NC3CCCCC3)cc2COc2cc3c(cc21)OCO3 [HN2221, 8-(cyclohexylamino)-9-fluoro[2]benzoxepino[3,4-f]-1,3-benzodioxol-11(6H)-one]",119%,,,,,,,,,,inhibition of the binding between mTOR(CD) and mLST8 proteins [2]: did not significantly inhibit
selectively inhibit mTORC2,44%,,95%,"COc1cc2c(cc1OC)C(=O)c1cc(-c3ccoc3)ccc1CS2 [HN2308, 9-(3-furanyl)-2,3-dimethoxydibenzo[b,e]thiepin-11(6H)-one]",,no effect,selective mTORC2 inhibitors,reduce Akt Ser473 phosphorylation,54%,increased AKT Ser473 phosphorylation significantly,no effect,119 % control,46 % control,104 % control,"effect on S6K Thr389 phosphorylation (mTORC1 [4]; 40 μM, 9 hours): no effect"
,72%,> 20%,60%,"COc1ccccc1CNc1cc2c(cc1F)C(=O)c1cc3c(cc1OC2)OCO3 [HN2323, 9-fluoro-8-((2-methoxybenzyl)amino)-[1,3]dioxolo[4′,5′:4,5]benzo[1,2-b]benzo[e]oxepin-11(6H)-one]",180%,no effect,selective mTORC2 inhibitors,reduce Akt Ser473 phosphorylation,52%,increased AKT Ser473 phosphorylation significantly,no effect,135 % control,48 % control,128 % control,"increase in LC3-II (LC3-II [1]; 40 μM): 80%; inhibition at 40 µM (mTORC1 [4]; HeLa, 9 h, read-out: reduction in p70S6K Thr389 phosphorylation compared to the control group): 40%"

SMILES,selective inhibition of mTORC2 (mTORC2 [3]),remaining activity at 40 µM (mTORC2 [3]),inhibition at 40 µM (mTORC2 [3]),remaining activity at 40 µM (mTORC1 [4]; 9 hours),activity at 40 µM (LC3-II [1]),effect on LC3-II (LC3-II [5]),selectivity for mTORC2 over mTORC1 (mTORC2 [6]),effect on Akt Ser473 phosphorylation (mTORC2 [6]),decrease in AKT Ser473 phosphorylation at 24 hours (mTORC2 [6]),AKT Ser473 phosphorylation from 1 to 12 hours (mTORC2 [6]),effect on S6K Thr389 phosphorylation (mTORC1 [7]),LC3-II (% control) (LC3-II [5]; 100 nM),pSer473-AKT/AKT (% control) (mTORC2 [6]; 100 nM),pThr389-S6K/S6K (% control) (mTORC1 [7]; 100 nM),other results
"COc1cc2c(cc1OC)C(=O)c1cc(Br)ccc1CS2 [HN2304, 9-bromo-2,3-dimethoxydibenzo[b,e]thiepin-11(6H)-one]",selectively inhibit mTORC2,44%,> 20%,204%,,not affected,selective mTORC2 inhibitors,reduce Akt Ser473 phosphorylation,17%,significantly increased,markedly increased,,,,LC3-II (% control) (LC3-II [5]; 500 nM): 82 % control; pSer473-AKT/AKT (% control) (mTORC2 [6]; 500 nM): 82 % control; pThr389-S6K/S6K (% control) (mTORC1 [7]; 500 nM): 504 % control
